According to patent publication US20010009764A1, “Endothelial-derived toxic factor” (priority 1997, published 2001):

What was measured:
[1] = test system: primary cerebral cortical cultures; experiment: Neurotoxicity (LDH release) of AD microvessel-conditioned medium; assay type: cell-based, rat
Procedure: Microvessels stored in liquid nitrogen, were quick-thawed at 37° C. and centrifuged at 2,000×g for 10 min. The vessels were washed 3 times with cold Hank's balanced salt-solution and resuspended in serum-free DMEM (2 ml) containing 1% lactalbumin hydrolysate. Microvessels were allowed to “recover” for 1 h, after which they released little LDH. The microvessels were washed by centrifugation and resuspended at a concentration of 100 μg protein per ml in serum-free DMEM containing 1% lactalbumin hydrolysate. The microvessels were then incubated for variable times (4-24 h) in a CO2 incubator, centrifuged, and the conditioned medium was sterile-filtered through a 0.4 μm filter, and used immediately.
Procedures for primary neuronal cultures prepared from fetal rat brains were previously described (Grammas P, Moore P, Weigel P H, “Production of Neurotoxic Factors by Brain Endothelium in AD”, Ann. NY Acad. Sci., 826, 1997, which is hereby incorporated herein by reference.) Neurons are obtained and cultured from 17 day fetal rats. […] The purity of these cultures was determined by antibody reactivity to neuronal-specific enolase.
Cell death by necrosis was determined by release of cytoplasmic lactate dehydrogenase (LDH) (Grammas et al., “Production Of Neurotoxic Factors By Brain Endothelium In AD”, Ann NY Acad Sci, 826:47-55, 1997). […] The A490 of each well was measured to determine LDH activity. […]

neuronal cultures [2] = experiment: Neuronal cytotoxicity (LDH release) of conditioned media from rat brain endothelial cells treated with PKC modulators; assay type: cell-based; conditions: for EDTF^BIM release from endothelial cell cultures: treatment with other PKC inhibitors; for cytotoxic response as % of that elicited by BIM: inhibitor 1 μM on endothelial cells, BIM-mediated cytotoxicity = 100%
Procedure: FIG. 8. Specificity of endothelial derived toxic factor EDTF response to Protein Kinase C inhibition. To confirm that production of EDTF in response to BIM (EDTF^BIM) was indeed related to PKC inhibition, the effect of other PKC inhibitors, calphostin (Cal) and stauroporine (S'sporin) as well as the PKC agonist PMA, were examined. Endothelial cell cultures were incubated in serum-free media (control) containing either BIM (1 μM); BIM and PMA (1 μM each); calphostin (1 μM); or staurosporine (1 μM). The media were collected after 24 hours and added to neuronal cultures and cytotoxicity (LDH release) was measured after 24 hours. Data are expressed as a percentage of the BIM-mediated cytotoxicity (100%).
(§1) Cell death by necrosis was determined by release of cytoplasmic lactate dehydrogenase (LDH) (Grammas et al., “Production Of Neurotoxic Factors By Brain Endothelium In AD”, Ann NY Acad Sci, 826:47-55, 1997). Medium (100 μl) from the neuronal cultures was removed, added to a 96-well plate, the chromogenic substrate added, and the plate was incubated at room temperature for 30 min in darkness. The A490 of each well was measured to determine LDH activity. Data (% cytotoxicity) were expressed as a percentage of total LDH released by treatment with 1% Triton X-100 added to the same well. Vascular LDH release, determined for microvessel-containing inserts placed in wells without neuronal cells, was subtracted from each co-culture point. Each point was performed in duplicate.
For the preparation of endothelial-conditioned media, the media were removed and confluent endothelial cell cultures washed with versene and fresh serum-free DMEM containing (unless otherwise indicated) 1 μM of the PKC inhibitor, bisindolylmaleimide (BIM), was added. The conditioned medium was collected, after 8-24 hrs, and centrifuged at 100,000 g to remove debris and suspended cells, and 5% heat-inactivated horse serum was added prior to application of media to neuronal cultures.
Neurons were obtained and cultured from 15-18 day rat embryos by published methods (Dawson V. L., Dawson, T. M., London E. D., Bredt D. S., Snyder S. H., “Nitric Oxide Mediates Glutamate Neurotoxicity in Primary Cortical Cultures”, Proc. Natl. Acad. Sci. USA, 88:6368-6371, 1991, with our modifications: Grammas P, Moore P, Weigel P H, “Production of Neurotoxic Factors by Brain Endothelium in AD”, Ann. NY Acad. Sci., 826, 1997). Cerebral cortices were isolated, dissociated in Brooks-Logan solution (5% phosphate buffered saline, 0.04 M sucrose, 10 mM HEPES, pH 7.5, 0.03 M glucose) by trituration and seeded in polylysine-coated 24 well plates (15), containing DMEM with 5% heat-inactivated horse serum. After five days of culture, the cells were treated with 10 μg of 5-fluoro-2′-deoxyuridine per well and cultures were maintained for an additional 2 to 3 weeks.

[3] = test system: primary cerebral cortical cultures; experiment: Neuronal necrosis by candidate molecules at 4 h; assay type: cell-based, rat; conditions: data not shown
Procedure: as §1

endothelial cultures = assay type: cell-based, rat
Procedure: as §1
Small arterioles from rat brain were isolated, and endothelial cell cultures initiated, as previously published (Diglio C. A., Grammas P., Giacomelli F. and Wiener J., “Rat Cerebral Microvascular Smooth Muscle Cells in Culture”, J. Cell Physiol., 129:131-141, 1986; Diglio C. A., Liu W., Grammas P., Giacomelli F., and Wiener J., “Isolation and Characterization of Cerebral Resistance Vessel Endothelium in Culture”, Tissue and Cell, 25:833-846, 1993). […] Cells (passages 10-15) were maintained in Dulbecco's modified Eagle's medium (DMEM) and 10% fetal calf serum and subcultured using trypsin-versene (0.025%).

neuronal cultures [4] = assay type: cell-based, rat
Procedure: as §1
Neurons were obtained and cultured from 15-18 day rat embryos by published methods (Dawson V. L., Dawson, T. M., London E. D., Bredt D. S., Snyder S. H., “Nitric Oxide Mediates Glutamate Neurotoxicity in Primary Cortical Cultures”, Proc. Natl. Acad. Sci. USA, 88:6368-6371, 1991, with our modifications: Grammas P, Moore P, Weigel P H, “Production of Neurotoxic Factors by Brain Endothelium in AD”, Ann. NY Acad. Sci., 826, 1997). […]

## N=C(NCCC[C@H](N)C(=O)O)N[N+](=O)[O-] [N^GNitro-L-arginine]
[1]; AD microvessels with or without preincubation with 10 μM N^GNitro-L-arginine
  % neurotoxicity of conditioned medium: 69±12%

## CCCCCCCCCCCCCC(=O)O[C@@H]1[C@@H](C)[C@@]2(O)[C@@H](C=C(CO)C[C@]3(O)C(=O)C(C)=C[C@@H]23)[C@@H]2C(C)(C)[C@]12OC(C)=O [PMA, phorbol myristate acetate]
Neuronal cultures [2]; concurrent PMA and BIM, 1 μM each, media collected 24 hours, LDH after 24 hours
  reduction of neuronal cytotoxicity (EDTF^BIM release) compared to BIM alone: approximately 60%

## C[C@@H]1C[C@@H]([C@H](O)CC2CC(=O)NC(=O)C2)C(=O)[C@@H](C)C1 [cycloheximide]
[1]; AD microvessels incubated with cycloheximide 10 μg/ml
  decrease in neuronal necrosis: 60%

## CCCCCCCCCCCCC/C=C/[C@@H](O)[C@@H](N)CO [sphingosine]
Neuronal cultures [2]
  EDTF^BIM release from endothelial cell cultures: elicited EDTF^BIM release

## CN[C@@H]1C[C@H]2O[C@@](C)([C@@H]1OC)n1c3ccccc3c3c4c(c5c6ccccc6n2c5c31)C(=O)NC4 [staurosporine]
Neuronal cultures [2]
  cytotoxic response as % of that elicited by BIM: 47%

## amyloid β
[3]
  neuronal necrosis at 4 h: little neuronal necrosis

## bisindolylmaleimide [BIM]
Endothelial cultures
  % cytotoxicity on endothelial cultures: 10%
Neuronal cultures [4]
  % cytotoxicity when added directly to neuronal cultures: 16%

## calphostin
Neuronal cultures [2]
  cytotoxic response as % of that elicited by BIM: 60%
  EDTF^BIM release from endothelial cell cultures: elicited EDTF^BIM release

## tumor necrosis factor α
[3]
  neuronal necrosis at 4 h: little neuronal necrosis
